Structures are written as SMILES. Where only a bound is given, the exact number is not on record here.

We go through 9 compounds from ChEMBL document CHEMBL1127015, “Centrally acting serotonergic and dopaminergic agents. 1. Synthesis and structure-activity relationships of 2,3,3a,4,5,9b-hexahydro-1H-benz[e]indole derivatives” (J Med Chem, 1993).

For assay [1], the target named is T1, D(2) dopamine receptor (Homo sapiens, UniProt P14416). Put plainly: Intrinsic activity from GTP shift using membranes from CHO cells transfected with mammalian dopamine receptor D2. Type of assay: cell membranes.
Assay [2] concerns the target T2, D(2) dopamine receptor (Rattus norvegicus, UniProt P61169). Description: Inhibitory concentration against [3H]raclopride-labeled dopamine receptor D2 in rat striatum. Format: tissue-based.
In assay [3] the test system is Mus musculus. Put plainly: Maximum decrease in temperature when compound is administered subcutaneously. Format: functional.
Assay [4] has as its system Mus musculus. Description: Effective dose on hypothermia in mouse when administered subcutaneously. Format: functional. Conditions: sc.
The test system of assay [5] is Mus musculus. Description: Effective dose on hypothermia in mouse when administered through peroral route. Type of assay: functional. The following applies: po.
Assay [6] deals with Mus musculus. Description: Maximum decrease in temperature when compound is administered through peroral route. Format: functional.
The target of assay [7] is T1, D(2) dopamine receptor. Put plainly: Binding affinity against [3H]U-86,170-labeled dopamine receptor D2 in cloned CHO cells. Format: cell-based.
Assay [8] addresses T2, D(2) dopamine receptor. Description: Binding affinity against [3H]raclopride-labeled dopamine receptor D2 in rat striatum. Type of assay: tissue-based.
In assay [9] the test system is Mus musculus. Description: Antagonism of apomorphine in reserpinized mice when a dose of 3.5 micro mol/kg is administered intraperitoneally. Type of assay: functional.
For assay [10], the system named is Mus musculus. Description: Antagonism of apomorphine in reserpinized mice when a dose of 35 micro mol/kg is administered intraperitoneally. Type of assay: functional.
The subject of assay [11] is Mus musculus. Description: Antagonism of apomorphine effects for 10-20 minutes in reserpinized mice following 0.4 umol/kg i.p. Format: functional.
For assay [12], the system named is Mus musculus. Put plainly: Antagonism of apomorphine for 10-20 minutes in reserpinized mice when a dose of 3.5 micro mol/kg is administered intraperitoneally. Type of assay: functional.
The subject of assay [13] is Mus musculus. Description: Antagonism of apomorphine effects for 0-10 minutes in reserpinized mice following 0.4 umol/kg i.p. More on the design: unit not given beside the values. Type of assay: functional.
Assay [14] relates to Mus musculus. Put plainly: Antagonism of apomorphine for 0-10 minutes in reserpinized mice when a dose of 3.5 micro mol/kg is administered intraperitoneally. Type of assay: functional.
For assay [15], the system named is Mus musculus. Description: Antagonism of apomorphine for 0-10 minutes in reserpinized mice when a dose of 35 micro mol/kg is administered intraperitoneally. Type of assay: functional.
Assay [16] has as its system Mus musculus. Description: Ability to stimulate dopaminergic systems by effect on locomotor activity in reserpinized mice when a dose of 3.5 micro mol/kg is administered intraperitoneally. Type of assay: functional.
In assay [17] the test system is Mus musculus. Put plainly: Ability to stimulate dopaminergic systems by effect on locomotor activity in reserpinized mice when a dose of 35 micro mol/kg is administered intraperitoneally. Type of assay: functional.
Assay [18] relates to Mus musculus. Description: Increase in locomotor activity in reserpinized mice following 0.4 umol/kg i.p. Type of assay: functional.
In assay [19] the test system is Mus musculus. Put plainly: Antagonism of apomorphine for 10-20 minutes in reserpinized mice when a dose of 35 micro mol/kg is administered intraperitoneally. Format: functional.
For assay [20], the system named is Mus musculus. Description: Antagonism of apomorphine effects in reserpinized mice following 0.4 umol/kg i.p. Format: functional.
The species named for assay [21] is Felis catus. Description: Percent of arterial blood pressure at sympathetic nerve activity (SND) dose value was determined. Type of assay: functional.
Assay [22] deals with Felis catus. Put plainly: Effective dose at which the sympathetic nerve activity (SND) has been reduced to 50% of the pretreatment value in anesthetized cat. Type of assay: functional.
In assay [23] the test system is Felis catus. Put plainly: Maximum decrease of arterial blood pressure at sympathetic nerve activity (SND) in anesthetized cat has been observed following 1 mg/kg dose. Format: functional. On the set-up: scale not given: the % may be the effect or the level left.
For assay [24], the system named is Felis catus. Put plainly: Maximum decrease of sympathetic nerve activity (SND) in anesthetized cat. Format: functional. On the set-up: scale not given: the % may be the effect or the level left.
In another assay the test system is Rattus norvegicus. Put plainly: Inhibition of firing rates of dopaminergic neurons in the substantia nigra pars compacta by intravenous injection in rats. Format: functional. The following applies: Rattus norvegicus, Substantia nigra pars compacta, iv; read-out: ED50.
Assay [25] deals with Mus musculus. Description: Antagonism of apomorphine in reserpinized mice when a dose of 3.8 micro mol/kg is administered intraperitoneally. Format: functional.
The test system of assay [26] is Mus musculus. Put plainly: Antagonism of apomorphine in reserpinized mice when a dose of 38 micro mol/kg is administered intraperitoneally. Type of assay: functional.
Assay [27] relates to Mus musculus. Description: Antagonism of apomorphine for 0-10 minutes in reserpinized mice when a dose of 38 micro mol/kg is administered intraperitoneally. Format: functional.
The subject of assay [28] is Mus musculus. Put plainly: Antagonism of apomorphine for 10-20 minutes in reserpinized mice when a dose of 3.8 micro mol/kg is administered intraperitoneally. Format: functional.
Assay [29] deals with Mus musculus. Description: Ability to stimulate dopaminergic systems by effect on locomotor activity in reserpinized mice when a dose of 38 micro mol/kg is administered intraperitoneally. Format: functional.
The subject of assay [30] is Mus musculus. Put plainly: Antagonism of apomorphine for 0-10 minutes in reserpinized mice when a dose of 3.8 micro mol/kg is administered intraperitoneally. Format: functional.
The subject of assay [31] is Mus musculus. Put plainly: Ability to stimulate dopaminergic systems by effect on locomotor activity in reserpinized mice when a dose of 3.8 micro mol/kg is administered intraperitoneally. Type of assay: functional.
For assay [32], the system named is Mus musculus. Description: Antagonism of apomorphine for 10-20 minutes in reserpinized mice when a dose of 38 micro mol/kg is administered intraperitoneally. Format: functional.

T1 sequence (P14416 whole entry): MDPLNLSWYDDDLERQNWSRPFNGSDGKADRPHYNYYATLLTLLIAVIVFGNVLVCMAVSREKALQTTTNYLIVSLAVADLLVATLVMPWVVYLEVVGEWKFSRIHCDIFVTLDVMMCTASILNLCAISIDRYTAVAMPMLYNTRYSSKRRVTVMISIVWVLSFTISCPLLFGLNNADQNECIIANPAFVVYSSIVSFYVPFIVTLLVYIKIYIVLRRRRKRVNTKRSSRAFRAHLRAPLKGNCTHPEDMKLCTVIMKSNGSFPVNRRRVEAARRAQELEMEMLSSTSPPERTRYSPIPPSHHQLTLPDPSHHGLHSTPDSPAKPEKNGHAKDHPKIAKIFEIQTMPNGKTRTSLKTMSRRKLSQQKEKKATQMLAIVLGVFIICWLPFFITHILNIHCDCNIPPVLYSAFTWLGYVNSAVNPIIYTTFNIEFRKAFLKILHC
T2 sequence (P61169 whole entry): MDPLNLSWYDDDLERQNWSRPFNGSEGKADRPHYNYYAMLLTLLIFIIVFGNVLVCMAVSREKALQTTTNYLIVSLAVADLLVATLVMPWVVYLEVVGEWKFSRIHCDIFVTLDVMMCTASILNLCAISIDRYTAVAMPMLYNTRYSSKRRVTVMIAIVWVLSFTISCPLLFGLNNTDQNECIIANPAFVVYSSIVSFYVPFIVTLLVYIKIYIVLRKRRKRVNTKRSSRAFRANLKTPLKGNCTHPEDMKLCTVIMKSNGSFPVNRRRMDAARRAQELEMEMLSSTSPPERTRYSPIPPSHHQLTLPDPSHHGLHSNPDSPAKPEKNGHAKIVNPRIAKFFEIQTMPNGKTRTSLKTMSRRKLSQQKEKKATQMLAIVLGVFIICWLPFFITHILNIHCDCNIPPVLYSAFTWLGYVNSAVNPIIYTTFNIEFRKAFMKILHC

As for `CCCN1CC[C@@H]2c3c(O)cccc3CC[C@@H]21`, the Intrinsic activity on D(2) dopamine receptor [1] came to 0%. The same compound displayed an IC50 against D(2) dopamine receptor [2] above 1 µM. Further, the values for the Max temperature decrease in the assay on Mus musculus [3] and in the assay on Mus musculus [6] were 8.5 and 5.5, respectively. Further, the figures for the ED50 in the assay with Mus musculus [4] and in the assay with Mus musculus [5] were 0.05 µmol/kg and 21 µmol/kg, respectively.
On to `COc1cccc2c1C1CCN(CCc3ccccc3)[C@@H]1CC2` (stereo not given in full), for which, on D(2) dopamine receptor [7], the Ki was above 0.339 µM.
For `CCCN1CC[C@H]2c3cccc(O)c3CC[C@H]21` (racemic), the Intrinsic activity at D(2) dopamine receptor [1] is 1%. For the same compound, the Ki was 0.218 µM on D(2) dopamine receptor [7] and above 1 µM on D(2) dopamine receptor [8].
On to `CCCN1CC[C@@H]2c3cccc(OC)c3CC[C@H]21` (racemic), for which the Intrinsic activity on D(2) dopamine receptor [1] came out at 0%. In addition, the Locomotor activity in the assay with Mus musculus [9] was found to be 122; in the assay on Mus musculus [10], 53; in the assay with Mus musculus [11] it was 123; in the assay on Mus musculus [12] it was 98; with Mus musculus [13], 87; in the assay on Mus musculus [14] it was 64. The Locomotor activity amounted to 10 in the assay on Mus musculus [15]; 6 in the assay on Mus musculus [16]; 27 in the assay on Mus musculus [17]; 1 in the assay on Mus musculus [18]; 34 with Mus musculus [19]; 188 with Mus musculus [20]. This compound came in with a Max temperature decrease in the assay with Mus musculus [3] of 3.9. This compound gave an ED50 with Mus musculus [4] of 34 µmol/kg.
In the case of `CCCN1[C@@H]2CCc3cccc(OC)c3C2C[C@@H]1C` (mixture of isomers), the BP in the assay filed under Felis catus [21] stood at 42%. For the same compound, the ED50 amounted to 0.17 µmol/kg in the assay with Felis catus [22], 14 µmol/kg with Mus musculus [4] and 338 µmol/kg in the assay with Mus musculus [5]. Moreover, the Control with Felis catus [23] came to 73%; in the assay with Felis catus [24] it was 82%. The same compound returned an IC50 at D(2) dopamine receptor [2] above 1 µM. Also, the Max temperature decrease with Mus musculus [3] is 6.8; in the assay with Mus musculus [6], 3.
At D(2) dopamine receptor [2], `CCCN1CCC2c3c(O)cccc3CCC21` (racemic) returned an IC50 above 1 µM. For the same compound, the Max temperature decrease is on record as 8.8 in the assay on Mus musculus [3] and 2.6 in the assay on Mus musculus [6]. For the same compound, the ED50 stood at 2.1 µmol/kg with Mus musculus [4] and 154 µmol/kg with Mus musculus [5].
At D(2) dopamine receptor [8], `CCCN1CCC2c3c(cccc3OC)CCC21` (racemic) had a Ki above 1 µM. Besides, the Max temperature decrease with Mus musculus [3] was found to be 1.5; with Mus musculus [6] it was 6. Besides, the figures for the 50% effective dose (ED50) in the assay with Mus musculus [4] and in the assay on Mus musculus [5] were 20 µmol/kg and 109 µmol/kg, respectively.
In the case of `CN1CCc2cccc3c2[C@H]1Cc1ccc(O)c(O)c1-3` [APOMORPHINE], the ED50 with Rattus norvegicus amounted to 0.03 µmol/kg.
As for `C=CCN1CC[C@H]2c3cccc(O)c3CC[C@H]21` (racemic), on D(2) dopamine receptor [1], the Intrinsic activity is 29%. Moreover, the Ki was found to be 0.075 µM at D(2) dopamine receptor [7] and 0.198 µM at D(2) dopamine receptor [8]. Further, the Locomotor activity stood at 111 with Mus musculus [25]; 21 in the assay with Mus musculus [26]; 32 in the assay with Mus musculus [27]; 111 with Mus musculus [11]; 111 with Mus musculus [28]; 12 in the assay on Mus musculus [29]. Also, the Locomotor activity with Mus musculus [13] worked out at 101; with Mus musculus [30], 88; with Mus musculus [31] it was 8; with Mus musculus [18] it was 0; in the assay with Mus musculus [32] it was 52; with Mus musculus [20], 130.
